From patent US20260042732A1, “Sulfur-containing Compounds and Compositions Thereof for Delivery of Nucleic Acids” (Poseida Therapeutics, Inc., priority 2022, published 2026)
Where “and” joins values, the source holds several entries; their conditions need not be identical. Identical values can stand only once.

Tested on: cells in the liver
Test: In vivo screening of LNPs comprising fLuciferase mRNA, bioluminescent imaging (BLI)
Set-up: species or system BALB/C mice
Settings: 0.5 mg/kg fLuciferase mRNA intravenously, BLI at 4 hr
Experimental: To formulate the LNPs, various percentages of one of COMPOUNDS 3, 6, or 12, the phospholipid (DOPE or DOPC), the structural lipid cholesterol (Chol) and 1,2-dimyristoyl-sn-glycerol methoxypolyethylene glycol (DMG-PEG2000; Avanti Polar Lipids, Alabaster, Alabama, USA) were combined to prepare LNP compositions.
Individual 25 mg/ml stock solutions were prepared by solubilizing the lipids in 200-proof HPLC-grade ethanol and stock solutions were stored at −80° C. until formulated. At the time of formulation, the lipid stock solutions were briefly allowed to equilibrate to room temp and then placed on a hot plate maintained at a temperature range of 50-55° C. Subsequently, the hot lipid stock solutions were combined to yield desired final mole percentages.
A 1 mg/ml solution of the 5′-CleanCap-fLuciferase mRNA (TriLink Biotech) to be incorporated into the LNPs was added to 150 mM sodium acetate buffer (pH 5.2) to form a stock solution and kept on ice. The lipid phase was mixed with the aqueous mRNA phase inside a microfluidic chip using a NanoAssemblr® instrument (Precision Nanosystems, Vancouver, BC, Canada) according to the manufacturer's instructions to form LNP compositions comprising encapsulated mRNAs.
The resultant mRNA LNP compositions were then transferred to a Repligen Float-A-Lyzer dialysis device—having a molecular weight cut off (MWCO) of 8-10 kDa (Spectrum Chemical Mfg. Corp, CA, USA) and processed by dialysis against phosphate buffered saline (PBS) (dialysate:dialysis buffer volume at least 1:200 v/v), pH 7.4 overnight at 4° C. (or alternatively room temperature for at least 4 hours), to remove the 25% ethanol and achieve a complete buffer exchange. […]
The location and extent of luciferase expression in treated and control mice were determined at 4 hr by bioluminescent imaging (BLI) of anesthetized mice using an IVIS Lumina in vivo imaging system (Perkin Elmer) according to the manufacturer's instructions. […]

SMILES: CCCCCCCCCCC(CN(CCCN(C)CCCN(CC(CCCCCCCCCC)SSCCO)CC(CCCCCCCCCC)SSCCO)CC(CCCCCCCCCC)SSCCO)SSCCO (stereo not drawn) [Compound 3]
- Mean Liver Luciferase Flux (LNP with 33.5% moles compound, 32% DOPE, 33.5% Chol, 1% PEG-DMG, lipid:RNA 40 w/w): 2.72E+08 p/s
- Mean Liver Luciferase Flux (LNP with 43.3% moles compound, 12% DOPC, 43.3% Chol, 1.5% PEG-DMG, lipid:RNA 100 w/w): 6.49E+10 p/s
- Mean Liver Luciferase Flux (LNP with 54% moles compound, 10% DOPC, 35% Chol, 1% PEG-DMG, lipid:RNA 100 w/w, 0.5 mg/kg): 1.94E+11 p/s and 1.16E+11 p/s
